This is an account of results in US10463666B2, “Pharmaceutical composition comprising progestogens and/or estrogens and 5-methyl-(6S)-tetrahydrofolate” (MERCK & CIE, priority 2005, dated 2019).

A short description of data set [1]: compatibility investigation of binary mixtures with vitamin B12 by DSC. In kind it is physicochemical. Set-up: key: ++: good compatibility expected below the stated temperature; +: compatibility below the stated temperature; ++/−: indifferent compatibility, possibly good compatibility below the stated temperature; +/−−: indifferent compatibility, appears to be compatible below the stated temperature; −: (strong) interaction, incompatible; −−−: (strong) interaction, incompatible. The conditions noted are these: binary mixture with vitamin B12, DSC, various gases and temperatures. As to the method:
Both vitamin B12 and 5-methyl-(6S)-tetrahydrofolate are unstable in the presence of atmospheric oxygen and humidity. […] Measurements of the incompatibilities between the intended formulation ingredients were carried out by a thermoanalytical method (DSC, differential scanning calorimetry). This allows incompatibilities to be recognized through low enthalpies of fusion and melting temperatures. These are caused for example by a reduced proportion of crystalline substance and the increase in impurities. In the determination, binary mixtures of excipients or active ingredients in each case with vitamin B12 were investigated, and the compatibility was examined under the influence of various gases and temperatures. […]
(In general: In DSC, transitions show as peaks or steps in heat flow.)

For data set [2] the following is noted: cited from earlier work.

Consider `C[C@]12CCC(=O)C=C1[C@@H]1C[C@@H]1[C@H]1[C@@H]3[C@@H]4C[C@@H]4[C@@]4(CCC(=O)O4)[C@@]3(C)CC[C@@H]12` [Drospirenone], for which, in data set [1], the Compatibility result is “+”.

On to `OC[C@H]1O[C@@H](O[C@H]2[C@H](O)[C@@H](O)C(O)O[C@@H]2CO)[C@H](O)[C@@H](O)[C@H]1O` (some centres unmarked) [Lactose], for which the Compatibility entry in data set [1] is “+”.

As for `Nc1nc2ncc(CNc3ccc(C(=O)N[C@@H](CCC(=O)O)C(=O)O)cc3)nc2c(=O)[nH]1` [folic acid], in data set [2] (folic acid fortification of food products, Canada and Chile), the “reduction of incidence of neural tube defects” value was “more than 50%”. The “reduction of neural tube defects” value in data set [2] (intake at the right time around conception) is on record as 50-70%.

Take Magnesium stearate: in data set [1], the Compatibility result is reported as “++/−”.
